Source: patent US11730705B2, “Small molecule CMKLR1 antagonists in inflammatory disease” (The Board of Trustees of the Leland Stanford Junior …, priority 2019, dated 2023)
pIC50: −log10 of the molar value.

How the values were obtained:
C57/BL6 mice = assay: α-NETA acute single dose toxicity (LD50); assay type: in vivo, mouse
Source text: FIG. 3. Acute single dose toxicity (LD50) of α-NETA. […] The remaining mice were monitored for 14 days. Graph depicts lethality at each dose, n=3 per mice/dose.

Cyp3A4 = Cyp3A4 (Homo sapiens, UniProt P08684); settings: substrate luciferin-6′ phenylpiperazinylyl; read-out: Cyp3A4 IC50 listed in PubChem; cited from earlier work
[1] = test system: cytochrome P450 (Cyp) drug metabolizing enzymes; assay: Time-dependent (mechanism-based) Cyp inhibition; assay type: in vitro ADME, human
Procedure: Cyp enzyme inhibition. Human liver microsomes were pre-incubated with 7 concentrations ([…], duplicate wells) of α-NETA for 30 min.

Sequence of Cyp3A4 (P08684 whole entry): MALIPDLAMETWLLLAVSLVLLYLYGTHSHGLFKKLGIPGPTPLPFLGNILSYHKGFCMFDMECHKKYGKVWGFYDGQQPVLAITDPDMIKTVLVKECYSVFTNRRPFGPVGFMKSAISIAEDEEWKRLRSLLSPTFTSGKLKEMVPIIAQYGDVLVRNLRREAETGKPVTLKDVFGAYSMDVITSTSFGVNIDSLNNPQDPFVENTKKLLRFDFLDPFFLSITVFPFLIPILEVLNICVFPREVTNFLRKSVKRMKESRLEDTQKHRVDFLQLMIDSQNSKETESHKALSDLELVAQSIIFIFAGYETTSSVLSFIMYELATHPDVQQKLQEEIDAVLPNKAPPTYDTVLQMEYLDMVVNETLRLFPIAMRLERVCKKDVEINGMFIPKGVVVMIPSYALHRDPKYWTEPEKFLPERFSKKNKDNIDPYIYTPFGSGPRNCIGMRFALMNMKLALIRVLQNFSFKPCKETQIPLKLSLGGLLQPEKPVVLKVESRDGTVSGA

C[N+](C)(C)CCC(=O)c1cccc2ccccc12.[I-] [α-NETA, 2-(α-naphthoyl) ethyltrimethylammonium iodide]
calculated LD50, acute single dose (C57/BL6 mice; p.o., mice, 10% captisol): 873 mg/kg
lethality (C57/BL6 mice; two highest doses (3000, 1000 mg/kg) by oral gavage): Lethal effects were observed within hours
pIC50 (Cyp3A4): 6.70
time-dependent (mechanism-based) Cyp inhibition [1]: No time-dependent (mechanism-based) Cyp inhibition was detected
